# Assay: Release profile of fluorescent molecules from PEG-PLGA double-emulsion hairy microparticles
# Type: physicochemical
# Details: 0.1 M PBS buffer pH 7.4, 37° C., fluorescence in supernatant
# Description: FIGS. 2A-2B. Simulated drug releasing profile from PEG-PLGA double emulsions-based hairy microparticles using two different fluorescent molecules. (FIG. 2A) Loaded Alexa Fluor® 647 (1025.2 g/mol) and (FIG. 2B) GFP (27 kDa) were released depending on the time and detected in supernatant.
# To test drug encapsulating and releasing properties, we use two different sizes of fluorescent molecules (Alexa Fluor® 647, 1025.2 g/mol and GFP, 27 kDa). We load these molecules into most inner phase and generate double emulsions through two-step sequential emulsification. After fully drying of DCM, hairy microparticles are collected and washed 3 times by centrifugation at 3000 rcf for 1 min with deionized water. To determine the release profile, we place a sample in 0.1 M PBS buffer (pH=7.4, 5 ml total) at 37° C. and monitor the release of the fluorescent molecules. The fluorescent intensity in supernatant are measured using a BioTek plate reader. FIGS. 2A-2B show the release profile of both Alexa Fluor 647 and GFP. Based on the fluorescent intensity of end point, about 22-26% of Alexa Fluor 647 and 19-35% of GFP are released (compared to the amount injected into the emulsions) from microcapsules.
substance,measurement,value
Alexa Fluor 647,"released from microcapsules, compared to the amount injected into the emulsions, based on fluorescent intensity of end point",22-26%

# Source: US20250332113A1, “ADHESIVE PARTICLES FOR ACTIVE DELIVERY” (THE TRUSTEES OF THE UNIVERSITY OF PENNSYLVANIA, priority 2022, published 2025)
